PubChem BioAssay AID180 (DTP/NCI, 2004)
Where “and” joins values, the source holds several entries; their conditions need not be identical. Equal values may be shown once.

Tested on: BDF1 mice, Adenocarcinoma 755 s.c., tumor weight T/C
Assay: NCI In Vivo Anticancer Drug Screen. Data for tumor model Adenocarcinoma 755 (subcutaneous) in B6D2F1 (BDF1) mice
Conditions: endpoint: mean tumor weight, higher = larger tumour
In short: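 Compound activity was tested in mice carrying transplanted tumors. Survival or tumor size was measured, and each value is the treated-group measurement divided by that of the vehicle-treated control group (T/C).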

[1] = dose: 25.0 mg/kg/injection, schedule: Q01DX011 (ip), vehicle: carboxymethylcellulose (CMC)
[2] = dose: 30.0 mg/kg/injection, schedule: Q01DX011 (ip), vehicle: carboxymethylcellulose (CMC)
[3] = dose: 60.0 mg/kg/injection, schedule: Q01DX011 (ip), vehicle: carboxymethylcellulose (CMC)
[4] = dose: 15.0 mg/kg/injection, schedule: Q01DX011 (ip), vehicle: methylcellulose (MC)
[5] = dose: 31.0 mg/kg/injection, schedule: Q01DX011 (ip), vehicle: methylcellulose (MC)
[6] = dose: 25.0 mg/kg/injection, schedule: Q01DX011 (ip), vehicle: methylcellulose (MC)
[7] = dose: 3.0 mg/kg/injection, schedule: Q01DX011 (ip), vehicle: carboxymethylcellulose (CMC)

SMILES: COS(C)(=O)=O
- T/C [1]: 113 % of control
- T/C (dose: 50.0 mg/kg/injection, schedule: Q01DX011 (ip), vehicle: carboxymethylcellulose (CMC)): 88 % of control

SMILES: CSc1ncn(C)c2ncnc1-2
- T/C [2]: 58 % of control
- T/C [3]: 71 % of control

SMILES: Cc1ccccc1N=Nc1ccc(N=Nc2ccc(O)cc2)c(C)c1
- T/C (dose: 1.87 mg/kg/injection, schedule: Q01DX011 (ip), vehicle: methylcellulose (MC)): 74 % of control
- T/C (dose: 1.87 mg/kg/injection, schedule: Q01DX011 (ip), vehicle: saline): 77 % of control
- T/C (dose: 3.25 mg/kg/injection, schedule: Q01DX011 (ip), vehicle: methylcellulose (MC)): 89 % of control
- T/C (dose: 3.25 mg/kg/injection, schedule: Q01DX011 (ip), vehicle: saline): 101 % of control
- T/C (dose: 7.5 mg/kg/injection, schedule: Q01DX011 (ip), vehicle: methylcellulose (MC)): 101 % of control
- T/C (dose: 7.5 mg/kg/injection, schedule: Q01DX011 (ip), vehicle: saline): 68 % of control
- T/C (dose: 15.0 mg/kg/injection, schedule: Q01DX011 (ip), vehicle: saline): 88 % of control

SMILES: CN(CCO)/N=N/c1nc[nH]c1C(N)=O
- T/C (dose: 42.0 mg/kg/injection, schedule: Q01DX011 (ip), vehicle: carboxymethylcellulose (CMC)): 60 % of control
- T/C (dose: 93.0 mg/kg/injection, schedule: Q01DX011 (ip), vehicle: carboxymethylcellulose (CMC)): 57 % of control
- T/C (dose: 187.0 mg/kg/injection, schedule: Q01DX011 (ip), vehicle: carboxymethylcellulose (CMC)): 26 % of control

SMILES: CNc1nc(N)nc(Nc2ccc(I)cc2)c1N=O
- T/C (dose: 12.5 mg/kg/injection, schedule: Q01DX011 (ip), vehicle: carboxymethylcellulose (CMC)): 52 % of control
- T/C [1]: 39 % of control and 52 % of control
- T/C (dose: 50.0 mg/kg/injection, schedule: Q01DX011 (ip), vehicle: methylcellulose (MC)): 31 % of control
- T/C (dose: 100.0 mg/kg/injection, schedule: Q01DX011 (ip), vehicle: carboxymethylcellulose (CMC)): 20 % of control and 36 % of control and 38 % of control
- T/C (dose: 100.0 mg/kg/injection, schedule: Q01DX011 (ip), vehicle: methylcellulose (MC)): 46 % of control
- T/C (dose: 200.0 mg/kg/injection, schedule: Q01DX011 (ip), vehicle: carboxymethylcellulose (CMC)): 28 % of control and 30 % of control
- T/C (dose: 200.0 mg/kg/injection, schedule: Q01DX011 (ip), vehicle: methylcellulose (MC)): 25 % of control
- T/C (dose: 400.0 mg/kg/injection, schedule: Q01DX011 (ip), vehicle: methylcellulose (MC)): 12 % of control

SMILES: CSc1ncc(C)c(Nc2ccc(Br)cc2)n1
- T/C [4]: 111 % of control
- T/C [5]: 109 % of control

SMILES: Cn1c(=N)nc(SCc2ccccc2Cl)c2[nH]cnc21
- T/C [2]: 88 % of control
- T/C [3]: 118 % of control
- T/C (dose: 120.0 mg/kg/injection, schedule: Q01DX011 (ip), vehicle: carboxymethylcellulose (CMC)): 88 % of control
- T/C (dose: 240.0 mg/kg/injection, schedule: Q01DX011 (ip), vehicle: carboxymethylcellulose (CMC)): 16 % of control

SMILES: CS(=O)(=O)OCCC(=O)NCCNC(=O)CCOS(C)(=O)=O
- T/C (dose: 6.3 mg/kg/injection, schedule: Q01DX011 (ip), vehicle: saline): 167 % of control
- T/C (dose: 10.0 mg/kg/injection, schedule: Q01DX011 (ip), vehicle: saline): 64 % of control
- T/C (dose: 20.0 mg/kg/injection, schedule: Q01DX011 (ip), vehicle: saline): 120 % of control
- T/C [6]: 4 % of control
- T/C (dose: 25.0 mg/kg/injection, schedule: Q01DX011 (ip), vehicle: saline): 65 % of control
- T/C (dose: 30.0 mg/kg/injection, schedule: Q01DX011 (ip), vehicle: saline): 20 % of control
- T/C (dose: 40.0 mg/kg/injection, schedule: Q01DX011 (ip), vehicle: saline): 12 % of control
- T/C (dose: 50.0 mg/kg/injection, schedule: Q01DX011 (ip), vehicle: saline): 5 % of control and 10 % of control
- T/C (dose: 60.0 mg/kg/injection, schedule: Q01DX011 (ip), vehicle: saline): 1 % of control

SMILES: CCOc1ccccc1Nc1nc(N)nc(Cl)c1CC
- T/C [4]: 73 % of control
- T/C [5]: 79 % of control
- T/C (dose: 62.0 mg/kg/injection, schedule: Q01DX011 (ip), vehicle: methylcellulose (MC)): 87 % of control
- T/C (dose: 125.0 mg/kg/injection, schedule: Q01DX011 (ip), vehicle: methylcellulose (MC)): 98 % of control
- T/C (dose: 250.0 mg/kg/injection, schedule: Q01DX011 (ip), vehicle: methylcellulose (MC)): 100 % of control

SMILES: C[C@H](CCC(=O)O)[C@H]1CC[C@H]2[C@@H]3[C@H](O)C[C@@H]4C[C@H](O)CC[C@]4(C)[C@H]3C[C@H](O)[C@]12C (tested in a mixture with another compound)
- T/C (dose: 80.0 mg/kg/injection, schedule: Q01DX011 (ip), vehicle: methylcellulose (MC)): 31 % of control and 53 % of control
- T/C (dose: 160.0 mg/kg/injection, schedule: Q01DX011 (ip), vehicle: methylcellulose (MC)): 76 % of control
- T/C (dose: 320.0 mg/kg/injection, schedule: Q01DX011 (ip), vehicle: methylcellulose (MC)): 36 % of control

SMILES: Nc1ccc2cc(S(=O)(=O)O)cc(O)c2c1N=Nc1ccc(NC(=O)c2ccc(C(=O)Nc3ccc(N=Nc4c(N)ccc5cc(S(=O)(=O)O)cc(O)c45)c(S(=O)(=O)O)c3)cc2)cc1S(=O)(=O)O
- T/C [7]: 100 % of control
- T/C (dose: 7.0 mg/kg/injection, schedule: Q01DX011 (ip), vehicle: carboxymethylcellulose (CMC)): 45 % of control
- T/C (dose: 15.0 mg/kg/injection, schedule: Q01DX011 (ip), vehicle: carboxymethylcellulose (CMC)): 56 % of control
- T/C [2]: 48 % of control

SMILES: CCC1/C=C/C=C/CC(C)C(O)C(C)(O)C(=O)C(C)C(O)C(C)C(=O)C(C)C(O)C(C)/C=C/C(=O)OC2C(C)C(CC1)OC1(OC(CC(C)O)C(C)CC1=O)C2C (stereo not drawn) (tested in a mixture with another compound)
- T/C (dose: 1.0 mg/kg/injection, schedule: Q01DX011 (ip), vehicle: saline): 68 % of control
- T/C (dose: 2.0 mg/kg/injection, schedule: Q01DX011 (ip), vehicle: saline): 87 % of control
- T/C (dose: 4.0 mg/kg/injection, schedule: Q01DX011 (ip), vehicle: saline): 61 % of control

SMILES: CC(=O)OCC(=O)[C@@]1(O)CC[C@H]2[C@@H]3CCC4=CC(=O)[C@H](C)C[C@]4(C)[C@H]3[C@@H](O)C[C@@]21C
- T/C (dose: 6.2 mg/kg/injection, schedule: Q01DX011 (sc), vehicle: steriod suspending solution): 52 % of control
- T/C (dose: 12.5 mg/kg/injection, schedule: Q01DX011 (sc), vehicle: steriod suspending solution): 43 % of control
- T/C (dose: 25.0 mg/kg/injection, schedule: Q01DX011 (sc), vehicle: steriod suspending solution): 13 % of control and 38 % of control
- T/C (dose: 50.0 mg/kg/injection, schedule: Q01DX011 (sc), vehicle: steriod suspending solution): 32 % of control
- T/C (dose: 100.0 mg/kg/injection, schedule: Q01DX011 (sc), vehicle: steriod suspending solution): 15 % of control
- T/C (dose: 400.0 mg/kg/injection, schedule: Q01DX011 (sc), vehicle: steriod suspending solution): 4 % of control

SMILES: Cc1cnc(Cl)nc1Sc1nc(N)nc2nc[nH]c12
- T/C (dose: 0.5 mg/kg/injection, schedule: Q01DX011 (ip), vehicle: methylcellulose (MC)): 56 % of control
- T/C (dose: 0.75 mg/kg/injection, schedule: Q01DX011 (ip), vehicle: carboxymethylcellulose (CMC)): 31 % of control
- T/C (dose: 1.0 mg/kg/injection, schedule: Q01DX011 (ip), vehicle: carboxymethylcellulose (CMC)): 31 % of control and 38 % of control
- T/C (dose: 1.0 mg/kg/injection, schedule: Q01DX011 (ip), vehicle: methylcellulose (MC)): 52 % of control
- T/C (dose: 1.5 mg/kg/injection, schedule: Q01DX011 (ip), vehicle: carboxymethylcellulose (CMC)): 11 % of control
- T/C [7]: 8 % of control and 11 % of control
- T/C (dose: 3.0 mg/kg/injection, schedule: Q01DX011 (ip), vehicle: methylcellulose (MC)): 35 % of control
- T/C (dose: 6.0 mg/kg/injection, schedule: Q01DX011 (ip), vehicle: carboxymethylcellulose (CMC)): 8 % of control

SMILES: CC1CCCN(/N=N/c2nc3c([nH]2)c(=O)n(C)c(=O)n3C)C1 (stereo not drawn)
- T/C [6]: 66 % of control
- T/C (dose: 75.0 mg/kg/injection, schedule: Q01DX011 (ip), vehicle: methylcellulose (MC)): 61 % of control
